Laboratory results as given in ChEMBL document CHEMBL3286343, “Fused Thiazin-3-ones as KCa3.1 Inhibitors” (ACS Med Chem Lett, 2014).

Biological target: Intermediate conductance calcium-activated potassium channel protein 4 (Homo sapiens, UniProt O15554)
Assay: Inhibition of human KCa3.1 overexpressed in HEK293 cells assessed as thallium influx preincubated for 15 mins followed by thallium/ionomycin addition measured for 50 secs by FLIPR assay
Format: cell-based

Intermediate conductance calcium-activated potassium channel protein 4, sequence (O15554 whole entry): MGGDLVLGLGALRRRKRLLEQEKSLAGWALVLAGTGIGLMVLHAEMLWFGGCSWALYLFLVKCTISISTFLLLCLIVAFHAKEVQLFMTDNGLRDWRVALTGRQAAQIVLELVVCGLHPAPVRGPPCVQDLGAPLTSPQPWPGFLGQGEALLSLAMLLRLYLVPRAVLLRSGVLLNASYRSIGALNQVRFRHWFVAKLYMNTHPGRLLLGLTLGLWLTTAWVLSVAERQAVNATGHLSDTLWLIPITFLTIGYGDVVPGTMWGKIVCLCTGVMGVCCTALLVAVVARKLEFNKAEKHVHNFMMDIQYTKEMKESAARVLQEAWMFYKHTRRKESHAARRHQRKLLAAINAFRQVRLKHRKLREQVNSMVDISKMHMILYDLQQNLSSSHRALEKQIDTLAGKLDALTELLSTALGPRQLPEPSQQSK

| Compound | IC50 [nM] |
| --- | --- |
| CC(c1ccc(F)c(OC(F)(F)F)c1)N1C(=O)CS(=O)(=O)c2ccsc21 (configuration not stated) | 39 |
| CC(c1ccc(F)c(OC(F)(F)F)c1)N1C(=O)CSc2ncsc21 (configuration not stated) | 60 |
